Reference: patent US20180327367A1, “MACROCYCLIC BROAD SPECTRUM ANTIBIOTICS” (priority 2015, published 2018)
In brackets after ≈: the same amount, converted by molar mass. Where two headings read alike, the source gives them in different places.

Assays:
Format in all cases: cell-based
[1] = system: Escherichia coli MC4100 harboring the IMP4213 (E. coli IMP); test: microbe, parasite or virus in culture; conditions: Escherichia coli, 22 h, read-out: MIC (μg/mL) E. coli IMP, E. coli MC4100 IMP4213, increased outer-membrane permeability; 35° C., 22 hours
Summary of the method: (§1)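 CLSI broth microdilution in cation-adjusted Mueller Hinton Broth with 0.002% Tween-80; inoculum final OD600 0.0005, 22 hours at 35° C. Ten 2-fold dilutions starting at 4 μg/mL (protocol 2) or 0.5 μg/mL (protocol 3).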

[2] = system: Methicillin Resistant Staphylococcus aureus strain USA 300, NRS384; test: Minimum inhibitory concentration, broth micro-dilution (CLSI), S. aureus; conditions: Staphylococcus aureus, MRSA / NRS 384 / USA300, 22 h, 35° C., 22 hours
Summary of the method: as §1

[3] = system: Escherichia coli ATCC 25922; test: Minimum inhibitory concentration, broth micro-dilution (CLSI), E. coli; conditions: Escherichia coli, ATCC25922, 22 h, 35° C., 22 hours
[4] = MRSA USA 300 NRS384, read-out: MIC (μg/mL) S. aureus
[5] = E. coli ATCC 25922, read-out: MIC (μg/mL) E. coli
[6] = read-out: MIC (μg/mL) S. aureus, MRSA USA 300 NRS384
[7] = read-out: MIC (μg/mL) E. coli, E. coli ATCC 25922

`CCCCCCc1ccc(C(=O)N2CCC(N)C[C@H]2C(=O)N(C)[C@@H]2C(=O)N[C@@H](C)C(=O)N[C@H](C(=O)NCC#N)Cc3ccc(OCCN)c(c3)-c3cc2ccc3OCCN)c(C)c1` (stereo partly drawn) [Compound 526-3] was tested, and the MIC [1] was 0.031 µg/mL (≈ 0.0358 µM), the MIC [2, 4] was 0.063 µg/mL (≈ 0.0727 µM) and the MIC [3, 5] was 3 µg/mL (≈ 3.46 µM).

`Cc1nc(-c2ccc(CC(C)C)cc2)ccc1C(=O)N[C@@H](CCN)C(=O)N(C)[C@@H]1C(=O)N[C@@H](C)C(=O)N[C@H](C(=O)NCC#N)Cc2ccc(O)c(c2)-c2cc1ccc2OCCN` [Compound 502] was tested, and the MIC [1] was 0.003 µg/mL (≈ 0.00355 µM), the MIC [2, 4] was 0.063 µg/mL (≈ 0.0745 µM) and the MIC [3, 5] was 0.25 µg/mL (≈ 0.296 µM).

In the case of `CCCCc1ccc(C(=O)N[C@@H](CCO)C(=O)N[C@@H](CCN)C(=O)N(C)[C@@H]2C(=O)N[C@@H](C)C(=O)N[C@H](C(=O)NCC#N)Cc3ccc(OCCN)c(c3)-c3cc2ccc3OCCN)c(C)c1` [Compound 382], the MIC [1] is reported as 0.5 µg/mL (≈ 0.548 µM), the MIC [2, 6] is reported as 0.5 µg/mL (≈ 0.548 µM) and the MIC [3, 7] is reported as 64 µg/mL (≈ 70.1 µM).

`CCCCCc1ccc(C(=O)N[C@@H](CCN)CC(=O)N(C)[C@@H]2C(=O)N[C@@H](C)C(=O)N[C@H](C(=O)NCC#N)Cc3ccc(OCCN)c(c3)-c3cc2ccc3OCCN)c(C)c1` [Compound 512] was tested, and the MIC [1] was 0.5 µg/mL (≈ 0.595 µM), the MIC [2, 4] was 0.38 µg/mL (≈ 0.452 µM) and the MIC [3, 5] was 64 µg/mL (≈ 76.2 µM).

With `CCCCc1ccc(C(=O)N[C@@H](CCN)C(=O)N[C@@H](C)C(=O)N(C)[C@@H]2C(=O)N[C@@H](C)C(=O)N[C@H](C(=O)NCC#N)Cc3ccc(OCCN)c(c3)-c3cc2ccc3OCCN)c(C)c1` [Compound 380] the MIC [1] was 4 µg/mL (≈ 4.53 µM), the MIC [2, 6] was > 4 µg/mL and the MIC [3, 7] was 64 µg/mL (≈ 72.5 µM).

`C=CCC(C)(C)COc1ccc(C(=O)N[C@@H](CCN)C(=O)N(C)[C@@H]2C(=O)N[C@@H](C)C(=O)N[C@H](C(=O)NCC#N)Cc3ccc(OCCN)c(c3)-c3cc2ccc3OCCN)c(C)c1` [Compound 285] gave an MIC [1] of 0.0078 µg/mL (≈ 0.00899 µM), an MIC [2, 4] of 0.063 µg/mL (≈ 0.0726 µM) and an MIC [3, 5] of 0.75 µg/mL (≈ 0.864 µM).

In the case of `CCCCCCCCCCCCCC(=O)N[C@@H](CCN)C(=O)N(C)[C@@H]1C(=O)N[C@@H](C)C(=O)N[C@H](C(=O)NCC#N)Cc2ccc(OCCO)c(c2)-c2cc1ccc2OCCO` [Compound 458], the MIC [1] is reported as 0.0078 µg/mL (≈ 0.00918 µM), the MIC [2, 4] is reported as 0.25 µg/mL (≈ 0.294 µM) and the MIC [3, 5] is reported as 16 µg/mL (≈ 18.8 µM).

For `C[C@@H]1NC(=O)[C@@H](N(C)C(=O)[C@H](CCCCN)NC(=O)c2ccc(-c3ccc(Cl)cc3)cc2)c2ccc(O)c(c2)-c2cc(ccc2O)C[C@@H](C(=O)N[C@H](C#N)CO)NC1=O` [Compound 418], the MIC [1] was > 4 µg/mL, the MIC [2, 4] was 4 µg/mL (≈ 4.85 µM) and the MIC [3, 5] was > 64 µg/mL.

`CCCCCCCCCC(=O)NCC(=O)NCC(=O)N[C@@H](CCN)C(=O)N(C)[C@@H]1C(=O)N[C@@H](C)C(=O)N[C@H](C(=O)NCC#N)Cc2ccc(OCCN)c(c2)-c2cc1ccc2OCCN` [Compound 362] gave an MIC [1] of 0.5 µg/mL (≈ 0.552 µM), an MIC [2, 6] of 0.25 µg/mL (≈ 0.276 µM) and an MIC [3, 7] of 32 µg/mL (≈ 35.3 µM).

`Cc1nc(-c2ccc(CC(C)C)cc2)ccc1C(=O)N[C@@H](CCN)C(=O)N(C)[C@@H]1C(=O)N[C@@H](C)C(=O)N[C@H](C(=O)NCC#N)Cc2ccc(OCCN)c(c2)-c2cc1ccc2OCCN` [Compound 169] gave an MIC [1] of 0.0078 µg/mL (≈ 0.00877 µM), an MIC [2, 4] of 0.023 µg/mL (≈ 0.0259 µM) and an MIC [3, 5] of 0.13 µg/mL (≈ 0.146 µM).

For `CCCCc1ccc(-c2ccc(C(=O)N[C@@H](CCC(=O)NCC(O)CO)C(=O)N(C)[C@@H]3C(=O)N[C@@H](C)C(=O)N[C@H](C(=O)NCC#N)Cc4ccc(OCCN)c(c4)-c4cc3ccc4OCCN)cc2)cc1` (stereo partly drawn) [Compound 517], the MIC [1] was 0.19 µg/mL (≈ 0.195 µM), the MIC [2, 4] was 0.38 µg/mL (≈ 0.389 µM) and the MIC [3, 5] was 6 µg/mL (≈ 6.15 µM).

Work on `CCCCCCc1ccc(C(=O)N[C@@H](CCN)C(=O)N(C)[C@@H]2C(=O)N[C@@H](C)C(=O)N[C@H](C(=O)NCC#N)Cc3ccc(O)c(c3)-c3cc2ccc3O)c(C)c1` [Compound 466] yielded an MIC [1] of 0.063 µg/mL (≈ 0.0836 µM), an MIC [2, 4] of 0.25 µg/mL (≈ 0.332 µM) and an MIC [3, 5] of 64 µg/mL (≈ 84.9 µM).

In the case of `C[C@@H]1NC(=O)[C@@H](N(C)C(=O)[C@H](CCN)NC(=O)CCCc2ccc(F)cc2)c2ccc(OCCN)c(c2)-c2cc(ccc2OCCN)C[C@@H](C(=O)NCC#N)NC1=O` [Compound 493], the MIC [1] is reported as 2 µg/mL (≈ 2.49 µM), the MIC [2, 4] is reported as 3 µg/mL (≈ 3.74 µM) and the MIC [3, 5] is reported as > 64 µg/mL.

`CCCCc1ccc(C(=O)N(C)[C@@H](CCN)C(=O)N(C)[C@@H]2C(=O)N[C@@H](C)C(=O)N[C@H](C(=O)NCC#N)Cc3ccc(OCCN)c(c3)-c3cc2ccc3OCCN)c(C)c1` [Compound 397] gave an MIC [1] of 0.38 µg/mL (≈ 0.46 µM), an MIC [2, 4] of 3 µg/mL (≈ 3.63 µM) and an MIC [3, 5] of 64 µg/mL (≈ 77.5 µM).

For `Cc1ccc(C(=O)N[C@@H](CCN)C(=O)N(C)[C@@H]2C(=O)N[C@@H](C)C(=O)N[C@H](C(=O)NCC#N)Cc3ccc(OCCN)c(c3)-c3cc2ccc3OCCN)c(C)c1` [Compound 128], the MIC [1] was 0.5 µg/mL (≈ 0.649 µM), the MIC [2, 4] was 4 µg/mL (≈ 5.2 µM) and the MIC [3, 5] was 16 µg/mL (≈ 20.8 µM).
